The values that follow come from publication PMC3845967 (ACS medicinal chemistry letters, 2013).

Where only a bound is given, the exact number is not on record here.

The term EC50 denotes the midpoint of the concentration-response curve. The Kd is a measure of binding affinity in units of concentration. The low end stands for tighter binding, the high end for weaker binding.

The subject of series [1] is fibroblasts or normal epithelial cells. To be noted: cited from earlier work.
Series [2] deals with mouse embryonic fibroblasts (MEFs). Briefly: MTT toxicity assay, mouse embryonic fibroblasts. It counts as cell-based. To be noted: for EC50: Mus musculus, Fibroblast. A general note: Tetrazolium assays rely on reduction of a dye to a coloured formazan, in cell work by metabolically active cells.
Series [3] deals with MDA-MB-231 and MCF7 breast cancer cells. It counts as cell-based. Conditions: for EC50: 72 h, read-out: EC50 (span over series and cell lines); for effect of substitution on activity compared to MKT-077: either cell line (MDA-MB-231, MCF7).
The subject of the next series is MCF7 breast cancer cells. Briefly: MTT anti-proliferative assay, MCF7 cells. Type of series: cell-based.
Series [4] concerns MDA-MB-231 breast cancer cells. As to the kind of experiment: MTT anti-proliferative assay, MDA-MB-231 cells. Type of series: cell-based.
For another series, the system named is MDA-MB-231 cells. Briefly: Cleavage of caspase-3 and PARP. Type of series: cell-based. Conditions: 48 h.
The test system of series [5] is MDA-MB-231 and MCF7 cells. Briefly: p62 oligomerization / autophagic flux. It counts as cell-based. Conditions: 24 h.
A further series deals with human Hsc70 (Homo sapiens, UniProt P11142). Briefly: ELISA binding of biotinylated analogs to immobilized Hsc70. Background: In an ELISA, binding on a coated surface is turned into a signal by an enzyme label.
Chain of human Hsc70 (P11142 whole entry): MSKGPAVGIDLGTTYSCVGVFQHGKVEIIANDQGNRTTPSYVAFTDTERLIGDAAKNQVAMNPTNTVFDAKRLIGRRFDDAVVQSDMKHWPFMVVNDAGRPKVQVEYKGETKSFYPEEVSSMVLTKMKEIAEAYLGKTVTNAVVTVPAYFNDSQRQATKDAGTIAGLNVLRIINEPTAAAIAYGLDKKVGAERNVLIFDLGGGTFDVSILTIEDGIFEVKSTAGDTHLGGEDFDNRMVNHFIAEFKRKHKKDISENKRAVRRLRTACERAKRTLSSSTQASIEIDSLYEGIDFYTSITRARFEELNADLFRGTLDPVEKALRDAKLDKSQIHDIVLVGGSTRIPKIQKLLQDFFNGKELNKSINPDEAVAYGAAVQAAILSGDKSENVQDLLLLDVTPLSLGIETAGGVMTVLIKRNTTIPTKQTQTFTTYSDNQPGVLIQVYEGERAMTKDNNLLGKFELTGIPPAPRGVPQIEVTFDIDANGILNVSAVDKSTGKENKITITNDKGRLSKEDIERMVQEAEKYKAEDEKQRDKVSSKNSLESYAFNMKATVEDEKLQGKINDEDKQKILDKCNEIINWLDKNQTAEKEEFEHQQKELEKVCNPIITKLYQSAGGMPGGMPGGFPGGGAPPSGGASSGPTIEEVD

As for `CCn1c(=O)/c(=C2\Sc3ccccc3N2C)s/c1=C\c1cccc[n+]1CC.[Cl-]` [MKT-077, reference compound], the “toxicity to fibroblasts or normal epithelial cells” value in series [1] is “not toxic”. For the same molecule, the EC50 in series [2] was over 50 µM.

For `CCn1c(=O)/c(=C2\Sc3ccccc3N2C)s/c1=C\c1cccc[n+]1C.[Cl-]` [YM-01, reference compound], the “toxicity to fibroblasts or normal epithelial cells” value in series [1] is on record as “not toxic”. The molecule further registered a concentration giving a half-maximal response (EC50) in series [2] of over 50 µM.

As to `CCn1c(=O)/c(=C2\Sc3cccc(F)c3N2C)s/c1=C\c1cccc[n+]1C` [compound 1], the EC50 in series [3] was in the range of 2.2 to 18 µM.

As to `CCn1c(=O)/c(=C2\Sc3ccc(F)cc3N2C)s/c1=C\c1cccc[n+]1C` [compound 2], the 50% effective concentration (EC50) in series [3] was in the range of 2.2 to 18 µM.

As to `CCn1c(=O)/c(=C2\Sc3cc(F)ccc3N2C)s/c1=C\c1cccc[n+]1C` [compound 3], the 50% effective concentration (EC50) in series [3] fell in the range of 2.2 to 18 µM.

On to `CCn1c(=O)/c(=C2\Sc3c(F)cccc3N2C)s/c1=C\c1cccc[n+]1C` [compound 4], for which the 50% effective concentration (EC50) in series [3] fell in the range of 2.2 to 18 µM.

In the case of `CCn1c(=O)/c(=C2\Sc3cccc(F)c3N2C)s/c1=C\c1cccc[n+]1CC` [compound 5], in series [3], the concentration giving a half-maximal response (EC50) was 0.8 to 13 µM.

Take `CCn1c(=O)/c(=C2\Sc3ccc(F)cc3N2C)s/c1=C\c1cccc[n+]1CC` [compound 6]: the EC50 in series [3] lay within 0.8 to 13 µM.

For the molecule `CCn1c(=O)/c(=C2\Sc3cc(F)ccc3N2C)s/c1=C\c1cccc[n+]1CC` [compound 7], in series [3], the EC50 was 0.8 to 13 µM.

In the case of `CCn1c(=O)/c(=C2\Sc3c(F)cccc3N2C)s/c1=C\c1cccc[n+]1CC` [compound 8], in series [3], the EC50 was 0.8 to 13 µM.

As to `CCn1c(=O)/c(=C2\Sc3cccc(Cl)c3N2C)s/c1=C\c1cccc[n+]1C` [compound 9], the EC50 in series [3] was 4.1 to 28 µM.

On to `CCn1c(=O)/c(=C2\Sc3ccc(Cl)cc3N2C)s/c1=C\c1cccc[n+]1C` [compound 10], for which, in series [3], the EC50 lay in the range of 4.1 to 28 µM.

As for `CCn1c(=O)/c(=C2\Sc3cc(Cl)ccc3N2C)s/c1=C\c1cccc[n+]1C` [compound 11], the EC50 in series [3] is 4.1 to 28 µM.

Regarding `CCn1c(=O)/c(=C2\Sc3c(Cl)cccc3N2C)s/c1=C\c1cccc[n+]1C` [compound 12], the EC50 in series [3] fell in the range of 4.1 to 28 µM.

On to `CCn1c(=O)/c(=C2\Sc3ccc(OC)cc3N2C)s/c1=C\c1cccc[n+]1C` [compound 13], for which the EC50 in series [3] was 3 to 30 µM.

In the case of `CCn1c(=O)/c(=C2\Sc3cc(OC)ccc3N2C)s/c1=C\c1cccc[n+]1C` [compound 14], in series [3], the concentration for a half-maximal effect (EC50) fell in the range of 3 to 30 µM.

On to `CCn1c(=O)/c(=C2\Sc3ccc(C(F)(F)F)cc3N2C)s/c1=C\c1cccc[n+]1C` [compound 15], for which, in series [3], the concentration giving a half-maximal response (EC50) lay within 3 to 30 µM.

In the case of `CCn1c(=O)/c(=C2\Sc3cc(C(F)(F)F)ccc3N2C)s/c1=C\c1cccc[n+]1C` [compound 16], in series [3], the EC50 was 3 to 30 µM.

`C=CCn1c(=O)/c(=C2\Sc3ccccc3N2C)s/c1=C\c1cccc[n+]1C.[Cl-]` [compound 17]: the “effect of substitution on activity compared to MKT-077” value in series [3] was “did not substantially affect activity”.

Consider `CN1/C(=c2\s/c(=C\c3cccc[n+]3C)n(Cc3ccccc3)c2=O)Sc2ccccc21.[Cl-]` [compound 18], for which, in series [3], the “effect of substitution on activity compared to MKT-077” value is given as “did not substantially affect activity”.

`CCn1c(=O)/c(=C2\Sc3ccccc3N2C)s/c1=C\c1cccc[n+]1Cc1ccccc1.[Cl-]` [compound 20]: the “fold improvement in activity compared to MKT-077” value in series [3] (MDA-MB-231 and MCF7 cells) is “approximately 2 fold”.

As to `CCn1c(=O)/c(=C2\Sc3ccccc3N2C)s/c1=C\c1nccc[n+]1C.[Cl-]` [compound 23], the “fold reduction in potency” value in series [3] (compared to MKT-077) is on record as “approximately 2 fold”.

In the case of `CCn1c(=O)/c(=C2\Sc3ccccc3N2C)s/c1=C\c1scc[n+]1C.[Cl-]` [compound 24], the “fold improvement in potency compared to MKT-077” value (“fold improvement in potency” for short) with MCF7 breast cancer cells turned out to be 3 fold.

In the case of `CCn1c(=O)/c(=C2\Sc3ccccc3N2C)s/c1=C\c1scc[n+]1Cc1ccccc1.[Cl-]` [compound 26], the “fold improvement in potency” value with MCF7 breast cancer cells was found to be 4 fold; in series [4] it was 2 fold.

Turning to `CCn1c(=O)/c(=C2\Sc3cccc(F)c3N2C)s/c1=C\c1scc[n+]1Cc1ccccc1.[Cl-]` [compound 27], the figures for the “fold improvement in potency” value (in the series with MCF7 breast cancer cells; in series [4]) were 2 fold and “more than 3 fold”, respectively. Moreover, the “activity against MEFs compared to MKT-077” value in series [2] is “increased activity against MEFs”.

Turning to `CCn1c(=O)/c(=C2\Sc3cc(Cl)ccc3N2C)s/c1=C\c1scc[n+]1Cc1ccccc1.[Cl-]` [compound 30], the “cleavage of caspase-3 and PARP” value with MDA-MB-231 cells was “activated”. Also, in series [2], the “activity against MEFs compared to MKT-077” value is listed as “increased activity against MEFs”. Also, in series [5], the “autophagic flux (p62 oligomerization, p62 monomer)” value is reported as “strongly affected autophagic flux”.

Turning to `CCn1c(=O)/c(=C2\Sc3cccc(F)c3N2C)s/c1=C\c1scc[n+]1Cc1ccc(CNC(=O)CCCC[C@@H]2SC[C@@H]3NC(=O)N[C@@H]32)cc1` [compound 32], the dissociation constant (Kd) at human Hsc70 amounted to 2.4 ± 0.4 µM.

At human Hsc70, `CCn1c(=O)/c(=C2\Sc3cccc(F)c3N2C)s/c1=C\c1cccc[n+]1CCCCCCNC(=O)CCCC[C@@H]1SC[C@@H]2NC(=O)N[C@@H]21` [compound 34] displayed a Kd of 10.9 ± 4.4 µM. This Kd lies about 4.5-fold higher than the previous one.

In turn, `CCn1c(=O)/c(=C2\Sc3cccc(Cl)c3N2C)s/c1=C\c1cccc[n+]1CCCCCCNC(=O)CCCC[C@@H]1SC[C@@H]2NC(=O)N[C@@H]21` [compound 38] came in with a Kd at human Hsc70 of 7.7 ± 1 µM.
